Among the data in ChEMBL document CHEMBL4818998, “Melatonin derivatives combat with inflammation-related cancer by targeting the Main Culprit STAT3” (Eur J Med Chem, 2021) are IC50, Activity and viability values, retold here.

SMILES strings stand for the structures. Some results are limits rather than exact numbers.

Test [1] concerns HGC-27. The experiment in a line: Antiproliferative activity against human HGC-27 cells assessed as inhibition of cell proliferation measured after 72 hrs by MTT assay. In kind it is functional, cell-based. Particulars: HGC-27, 72 h.
Test [2] deals with HepG2. Briefly: Antiproliferative activity against human HepG2 cells assessed as inhibition of cell proliferation measured after 72 hrs by MTT assay. In kind it is functional, cell-based. Particulars: HepG2, 72 h. (In general: Formazan colour is commonly taken as a measure of viable cells.)
In test [3] the test system is HCT-116. Briefly: Antiproliferative activity against human HCT-116 cells assessed as inhibition of cell proliferation measured after 72 hrs by MTT assay. In kind it is functional, cell-based. The conditions noted are these: HCT-116, 72 h.
Test [4] has as its system MGC-803. Briefly: Antiproliferative activity against human MGC-803 cells assessed as inhibition of cell proliferation measured after 72 hrs by MTT assay. In kind it is functional, cell-based. The conditions noted are these: MGC-803, 72 h.
For test [5], the system named is AGS. The experiment in a line: Antiproliferative activity against human AGS cells assessed as inhibition of cell proliferation measured after 72 hrs by MTT assay. In kind it is functional, cell-based.
Test [6] deals with A549. Briefly: Antiproliferative activity against human A549 cells assessed as inhibition of cell proliferation measured after 72 hrs by MTT assay. Type of test: functional, cell-based. The conditions noted are these: A549, 72 h.
Test [7] deals with MCF7. Briefly: Antiproliferative activity against human MCF7 cells assessed as inhibition of cell proliferation measured after 72 hrs by MTT assay. The conditions noted are these: MCF7, 72 h. In kind it is functional, cell-based.
The subject of test [8] is SGC-7901. Briefly: Antiproliferative activity against human SGC-7901 cells assessed as inhibition of cell proliferation measured after 72 hrs by MTT assay. In kind it is functional, cell-based. Particulars: SGC-7901, 72 h.
The subject of test [9] is HCT-116. Briefly: Induction of apoptosis in human HCT-116 cells assessed as necrotic cells at 20 uM measured after 48 hrs by Annexin V-FITC/PI staining based flow cytometry (reference value: 1.5%). Type of test: functional. On the technique in general: Flow cytometry measures light scatter and fluorescence of single cells or particles in a stream.
Test [10] relates to HCT-116. The experiment in a line: Induction of apoptosis in human HCT-116 cells assessed as early apoptotic cells at 20 uM measured after 48 hrs by Annexin V-FITC/PI staining based flow cytometry (reference value: 2.14%). Type of test: functional.
For test [11], the system named is HCT-116. The experiment in a line: Induction of apoptosis in human HCT-116 cells assessed as viable cells at 20 uM measured after 48 hrs by Annexin V-FITC/PI staining based flow cytometry (reference value: 94.9%). Type of test: functional. The conditions noted are these: read-out: Activity.
In test [12] the test system is HCT-116. Briefly: Induction of apoptosis in human HCT-116 cells assessed as late apoptotic cells at 20 uM measured after 48 hrs by Annexin V-FITC/PI staining based flow cytometry (reference value: 1.42%). Type of test: functional.

For `Cc1ccc(S(=O)(=O)Nc2ccccc2C(=O)NCCc2c[nH]c3ccccc23)cc1`, the IC50 in test [1], in test [2], in [3], in [4], in test [5] and in test [6] was more than 30 µM each time. Also, the IC50 in test [7] and in [8] was more than 30 µM throughout.
`CNc1ccccc1C(=O)NCCc1c[nH]c2ccccc12`: the IC50 in test [1], in [2], in test [3], in test [4], in test [5] and in test [6] was more than 30 µM each time. Also, the IC50 in test [7] and in test [8] was more than 30 µM in each case.
Take `O=C(NCCc1c[nH]c2ccccc12)c1ccccc1NC1CCCC1`: the 50% inhibitory concentration (IC50) (in general, the point on the concentration scale where inhibition reaches its midpoint) was 19.3 µM in test [1]; 28.8 µM in test [2]; more than 30 µM in [3]; more than 30 µM in test [4]; more than 30 µM in test [5]; more than 30 µM in test [6]. The IC50 in test [7] and in [8] was more than 30 µM in each case.
Turning to `COc1ccc2[nH]cc(CCNC(=O)c3ccccc3Nc3cccc(Cl)c3C)c2c1`, the 50% inhibitory concentration (IC50) was 19.9 µM in [1]; 21.9 µM in [2]; 20.4 µM in [3]; 9.8 µM in test [4]; 16 µM in test [5]; 17.8 µM in [6]. For the same molecule, the results for the IC50 in test [7] and in [8] were 25.3 µM and 27.9 µM, respectively.
Take `Cc1cccc(Nc2ccccc2C(=O)NCCc2c[nH]c3ccc(O)cc23)c1C`: the half-maximal inhibitory concentration (IC50) in test [1] is 27 µM; in test [2], 17 µM; in test [3] it was 22.2 µM; in test [4], 16.5 µM; in test [5], 8.97 µM; in test [6], more than 30 µM. Besides, the IC50 in test [7] was 25.3 µM; in test [8], more than 30 µM.
As to `O=C(NCCc1c[nH]c2ccccc12)c1ccccc1NCc1ccccc1`, the IC50 was 19.9 µM in test [1]; more than 30 µM in [2]; more than 30 µM in test [3]; more than 30 µM in [4]; more than 30 µM in test [5]; more than 30 µM in test [6]. The IC50 in [7] and in [8] was more than 30 µM in each case.
For the molecule `O=C(NCCc1c[nH]c2ccccc12)c1ccccc1NC1CCCCC1`, the IC50 was 26.7 µM in test [1]; 28.6 µM in [2]; more than 30 µM in test [3]; more than 30 µM in test [4]; more than 30 µM in test [5]; more than 30 µM in test [6]. The IC50 in test [7] and in test [8] was more than 30 µM throughout.
`O=C(NCCc1c[nH]c2ccccc12)c1ccccc1NC1CC1`: the IC50 in test [1] is 28.3 µM; in [2] it was 28.4 µM; in [3], more than 30 µM; in test [4], more than 30 µM; in test [5], more than 30 µM; in test [6], more than 30 µM. Further, the IC50 in test [7] and in test [8] was more than 30 µM throughout.
In the case of `COc1ccc2[nH]cc(CCNC(=O)c3ccccc3Nc3ccccc3)c2c1`, the IC50 is more than 30 µM in test [1]; more than 30 µM in test [2]; 24.7 µM in test [3]; 12.8 µM in [4]; more than 30 µM in [5]; more than 30 µM in [6]. The IC50 is 29 µM in test [7] and more than 30 µM in test [8].
Consider `CN(c1ccccc1)c1ccccc1C(=O)NCCc1c[nH]c2ccccc12`, for which the 50% inhibitory concentration (IC50) is more than 30 µM in [1]; 21.3 µM in test [2]; 17.2 µM in test [3]; 11.1 µM in test [4]; 14.7 µM in test [5]; more than 30 µM in test [6]. For the same molecule, the IC50 in test [7] is 19.6 µM; in test [8], more than 30 µM.
Consider `Cc1cccc(Nc2ccccc2C(=O)NCCc2c[nH]c3ccccc23)c1C`, for which the IC50 in [1] was more than 30 µM; in test [2], 21.7 µM; in test [3], 14.4 µM; in test [4], more than 30 µM; in test [5], 16.6 µM; in [6], more than 30 µM. For the same molecule, the IC50 in test [7] and in test [8] was more than 30 µM throughout.
`O=C(NCCc1c[nH]c2ccccc12)c1ccccc1NCCCCO`: the IC50 in test [1], in test [2], in [3], in test [4], in [5] and in test [6] was more than 30 µM throughout. Also, the IC50 in test [7] and in [8] was more than 30 µM each time.
Consider `COc1ccc2[nH]cc(CCNC(C)=O)c2c1` [MELATONIN], for which the IC50 in test [1], in [2], in test [3], in test [4], in test [5] and in test [6] was more than 30 µM in each case. For the same molecule, the IC50 in [7] and in test [8] was more than 30 µM each time.
In the case of `O=c1[nH]cc(F)c(=O)[nH]1` [FLUOROURACIL], the IC50 in test [1] is more than 30 µM; in test [2], more than 30 µM; in [3], 6.1 µM; in test [4] it was 29.2 µM; in [5], 11 µM; in test [6], more than 30 µM. The IC50 in test [7] is 13.2 µM; in test [8] it was more than 30 µM. For the same molecule, the Activity in [9] came out at 2.69%; in [10], 5.54%; in [12], 10.4%. Moreover, the viability at 20 µM in test [11] stood at 81.3%.
Turning to `CN(C)c1ccccc1C(=O)NCCc1c[nH]c2ccccc12`, the IC50 in test [1] is more than 30 µM; in test [2], more than 30 µM; in test [3], 16.6 µM; in [4], more than 30 µM; in test [5], 22.6 µM; in test [6], more than 30 µM. Moreover, the IC50 in [7] and in test [8] was more than 30 µM in each case.
Consider `COc1ccc(CCNc2ccccc2C(=O)NCCc2c[nH]c3ccccc23)cc1OC`, for which the concentration for half-maximal inhibition (IC50) in test [1], in test [2], in [3], in test [4], in [5] and in test [6] was more than 30 µM throughout. Besides, the IC50 in test [7] and in test [8] was more than 30 µM each time.
